Measured values: patent US10941157B2, “Pesticidal compositions and uses thereof” (Gilead Apollo, LLC, priority 2015, dated 2021)
In brackets after ≈: the same amount, converted by molar mass. Where two headings read alike, the source gives them in different places.

Assays:
Assay type in all cases: cell-based
[1] = tested on: Phytophthora capsici (Pc); test: In vitro pathogen growth inhibition assay, Pc; conditions: 48 h
Outline: (§1)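 Spores of Dm, Fv and Pc were diluted in 17% V8 liquid medium; Rs used 1.5 mm mycelial plugs in ¼ PDB. Compounds from 2.5 mg/ml DMSO stocks were combined with inoculum, growth was read by OD600 at 24 and 48 h with blank subtraction, and the reported value is the concentration giving ≥90% inhibition.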

[2] = tested on: Fusarium virguliforme (Fv); test: In vitro pathogen growth inhibition assay, Fv
Outline: as §1

[3] = tested on: Collectotrichum graminicola (Cg); test: In vitro pathogen growth inhibition assay, Cg; conditions: 48 h
Outline: (§2)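 Value reported is the compound concentration reaching ≥90% growth inhibition, from OD readings at 24 and 48 h after blank subtraction, confirmed visually. Inoculum was spores diluted in 17% V8 medium, except Rs, using 1.5 mm mycelial plugs in ¼ PDB; actual compound concentration corrected via OD600.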

[4] = tested on: Fusarium moniliforme (Fm); test: In vitro pathogen growth inhibition assay, Fm; conditions: Fusarium verticillioides
Outline: as §2

[5] = tested on: Rhizoctonia solani (Rs); test: In vitro pathogen growth inhibition assay, Rs (mycelial plugs); conditions: Rhizoctonia solani, 48 h
Outline: as §1

[6] = tested on: Diplodia maydis (Dm); test: In vitro pathogen growth inhibition assay, Dm; conditions: Stenocarpella maydis, 48 h
Outline: as §1

[7] = tested on: Septoria tritici (St); test: In vitro pathogen growth inhibition assay, St; conditions: Zymoseptoria tritici, 48 h
Outline: as §2

[8] = tested on: Botrtyis cinerea (Bc); test: In vitro pathogen growth inhibition assay, Bc; conditions: 48 h
Outline: as §2

[9] = ≥90% inhibition, 48 hours vs 2% DMSO control, read-out: Compound Concentration (ppm) sufficient for ≥90% inhibition of growth, Pc
[10] = ≥90% inhibition, 48 hours vs 2% DMSO control, read-out: Compound Concentration (ppm) sufficient for ≥90% inhibition of growth, Fv
[11] = ≥90% inhibition, 48 hours vs 2% DMSO control, read-out: Compound Concentration (ppm) sufficient for ≥90% inhibition of growth, Cg
[12] = ≥90% inhibition, 48 hours vs 2% DMSO control, read-out: Compound Concentration (ppm) sufficient for ≥90% inhibition of growth, Fm
[13] = ≥90% inhibition, mycelial plugs, 48 hours vs 2% DMSO control, read-out: Compound Concentration (ppm) sufficient for ≥90% inhibition of growth, Rs
[14] = ≥90% inhibition, 48 hours vs 2% DMSO control, read-out: Compound Concentration (ppm) sufficient for ≥90% inhibition of growth, Dm
[15] = ≥90% inhibition, 48 hours vs 2% DMSO control, read-out: Compound Concentration (ppm) sufficient for ≥90% inhibition of growth, St
[16] = ≥90% inhibition, 48 hours vs 2% DMSO control, read-out: Compound Concentration (ppm) sufficient for ≥90% inhibition of growth, Bc
[17] = concentration sufficient to ≥90% inhibition of growth, 48 hours vs 2% DMSO control, read-out: Compound Concentration (ppm) for ≥90% inhibition, Pc
[18] = concentration sufficient to ≥90% inhibition of growth, 48 hours vs 2% DMSO control, read-out: Compound Concentration (ppm) for ≥90% inhibition, Fv
[19] = concentration sufficient to ≥90% inhibition of growth, 48 hours vs 2% DMSO control, read-out: Compound Concentration (ppm) for ≥90% inhibition, Cg
[20] = concentration sufficient to ≥90% inhibition of growth, 48 hours vs 2% DMSO control, read-out: Compound Concentration (ppm) for ≥90% inhibition, Fm
[21] = concentration sufficient to ≥90% inhibition of growth, 48 hours vs 2% DMSO control, read-out: Compound Concentration (ppm) for ≥90% inhibition, Rs
[22] = concentration sufficient to ≥90% inhibition of growth, 48 hours vs 2% DMSO control, read-out: Compound Concentration (ppm) for ≥90% inhibition, Dm
[23] = concentration sufficient to ≥90% inhibition of growth, 48 hours vs 2% DMSO control, read-out: Compound Concentration (ppm) for ≥90% inhibition, St
[24] = concentration sufficient to ≥90% inhibition of growth, 48 hours vs 2% DMSO control, read-out: Compound Concentration (ppm) for ≥90% inhibition, Bc
[25] = ≥90% growth inhibition, 48 hours, vs 2% DMSO control, read-out: Compound Concentration (ppm) sufficient for ≥90% inhibition of Pc
[26] = ≥90% growth inhibition, 48 hours, vs 2% DMSO control, read-out: Compound Concentration (ppm) sufficient for ≥90% inhibition of Fv
[27] = ≥90% growth inhibition, 48 hours, vs 2% DMSO control, read-out: Compound Concentration (ppm) sufficient for ≥90% inhibition of Cg
[28] = ≥90% growth inhibition, 48 hours, vs 2% DMSO control, read-out: Compound Concentration (ppm) sufficient for ≥90% inhibition of Fm
[29] = ≥90% growth inhibition, mycelial plugs, 48 hours, vs 2% DMSO control, read-out: Compound Concentration (ppm) sufficient for ≥90% inhibition of Rs
[30] = ≥90% growth inhibition, 48 hours, vs 2% DMSO control, read-out: Compound Concentration (ppm) sufficient for ≥90% inhibition of Dm
[31] = ≥90% growth inhibition, 48 hours, vs 2% DMSO control, read-out: Compound Concentration (ppm) sufficient for ≥90% inhibition of St
[32] = ≥90% growth inhibition, 48 hours, vs 2% DMSO control, read-out: Compound Concentration (ppm) sufficient for ≥90% inhibition of Bc

Row | SMILES | IC90 [1, 9] | IC90 [2, 10] | IC90 [3, 11] | IC90 [4, 12] | IC90 [5, 13] | IC90 [6, 14] | IC90 [7, 15] | IC90 [8, 16] | IC90 [1, 17] | IC90 [2, 18] | IC90 [3, 19] | IC90 [4, 20] | IC90 [5, 21] | IC90 [6, 22] | IC90 [7, 23] | IC90 [8, 24] | also measured
1 | COc1ccc(F)cc1[C@H](Cn1c(=O)n(C(C)(C)C(=O)N2CCCC2)c(=O)c2c(C)c(-n3cccn3)sc21)OC1CCC(=O)CC1 [Compound I-122] | > 50 µg/mL | ≥ 2 µg/mL | ≥ 2 µg/mL | 0.4 µg/mL (≈ 0.614 µM) | 2 µg/mL (≈ 3.07 µM) | 10 µg/mL (≈ 15.3 µM) | > 50 µg/mL | 2 µg/mL (≈ 3.07 µM) | – | – | – | – | – | – | – | – | –
2 | COc1ccc(F)cc1[C@@H](Cn1c(=O)n(C(C)(C)C(=O)NC(C)C)c(=O)c2c(C)c(-n3nccn3)sc21)OCCCO [Compound I-320] | – | – | – | – | – | – | – | – | > 50 µg/mL | 50 µg/mL (≈ 83 µM) | > 50 µg/mL | 50 µg/mL (≈ 83 µM) | > 50 µg/mL | > 50 µg/mL | > 50 µg/mL | 50 µg/mL (≈ 83 µM) | –
3 | COCCOc1ccc(F)cc1[C@H](Cn1c(=O)n(C(C)(C)C(=O)NC(C)C)c(=O)c2c(C)c(-n3nccn3)sc21)OC(C)C [Compound I-068] | > 50 µg/mL | 0.4 µg/mL (≈ 0.634 µM) | 0.4 µg/mL (≈ 0.634 µM) | 0.08 µg/mL (≈ 0.127 µM) | 0.4 µg/mL (≈ 0.634 µM) | ≥ 0.08 µg/mL | ≥ 50 µg/mL | 0.4 µg/mL (≈ 0.634 µM) | – | – | – | – | – | – | – | – | –
4 | COc1ccc(F)cc1[C@H](Cn1c(=O)n([C@H](C)C(=O)N2CCCC2)c(=O)c2c(C)c(-n3cccn3)sc21)OCCC#N [Compound I-314] | – | – | – | – | – | – | – | – | – | – | – | – | – | – | – | – | IC90 [1, 25]: > 50 µg/mL; IC90 [2, 26]: 10 µg/mL (≈ 16.8 µM); IC90 [3, 27]: 50 µg/mL (≈ 84.1 µM); IC90 [4, 28]: 2 µg/mL (≈ 3.36 µM); IC90 [5, 29]: > 50 µg/mL; IC90 [6, 30]: > 50 µg/mL; IC90 [7, 31]: > 50 µg/mL; IC90 [8, 32]: > 50 µg/mL
5 | COc1ccc(F)cc1[C@H](Cn1c(=O)n(C(C)(C)C(=O)N2CCCC2)c(=O)c2c(C)c(-c3ncco3)sc21)OC(C)C [Compound I-017] | > 50 µg/mL | 0.4 µg/mL (≈ 0.668 µM) | 0.08 µg/mL (≈ 0.134 µM) | 0.08 µg/mL (≈ 0.134 µM) | 0.4 µg/mL (≈ 0.668 µM) | ≥ 0.08 µg/mL | > 10 µg/mL | 0.4 µg/mL (≈ 0.668 µM) | – | – | – | – | – | – | – | – | –
6 | Cc1c(-n2nccn2)sc2c1c(=O)n(C(C)(C)C(=O)NC(C)C)c(=O)n2CCc1cc(F)ccc1OCc1ccccc1 [Compound I-332] | – | – | – | – | – | – | – | – | – | – | – | – | – | – | – | – | IC90 [1, 25]: > 50 µg/mL; IC90 [2, 26]: 2 µg/mL (≈ 3.31 µM); IC90 [3, 27]: > 50 µg/mL; IC90 [4, 28]: 2 µg/mL (≈ 3.31 µM); IC90 [5, 29]: > 50 µg/mL; IC90 [6, 30]: > 50 µg/mL; IC90 [7, 31]: > 50 µg/mL; IC90 [8, 32]: > 50 µg/mL
7 | COc1ccc(F)cc1[C@H](Cn1c(=O)n(C(C)(C)C(=O)N2CC=CC2)c(=O)c2c(C)c(-n3nccn3)sc21)OC[C@@H](C)O [Compound I-081] | ≥ 50 µg/mL | 0.4 µg/mL (≈ 0.653 µM) | 0.4 µg/mL (≈ 0.653 µM) | 0.08 µg/mL (≈ 0.131 µM) | 0.4 µg/mL (≈ 0.653 µM) | 2 µg/mL (≈ 3.26 µM) | > 50 µg/mL | 2 µg/mL (≈ 3.26 µM) | – | – | – | – | – | – | – | – | –
8 | CCOC(=O)c1sc2c(c1C)c(=O)n(C(C)(C)C(N)=O)c(=O)n2C[C@H](OC1CCOCC1)c1ccccc1OC [Compound I-174] | – | – | – | – | – | – | – | – | > 50 µg/mL | 10 µg/mL (≈ 17.4 µM) | 50 µg/mL (≈ 87.2 µM) | 10 µg/mL (≈ 17.4 µM) | 50 µg/mL (≈ 87.2 µM) | 10 µg/mL (≈ 17.4 µM) | > 50 µg/mL | 10 µg/mL (≈ 17.4 µM) | –
9 | COCCOc1ccc(F)cc1[C@H](Cn1c(=O)n(C(C)(C)C(=O)NC(C)C)c(=O)c2c(C)c(-n3nccn3)sc21)OC1CCOCC1 [Compound I-076] | ≥ 50 µg/mL | 0.4 µg/mL (≈ 0.595 µM) | 0.4 µg/mL (≈ 0.595 µM) | 0.08 µg/mL (≈ 0.119 µM) | 0.08 µg/mL (≈ 0.119 µM) | 0.4 µg/mL (≈ 0.595 µM) | ≥ 10 µg/mL | 2 µg/mL (≈ 2.97 µM) | – | – | – | – | – | – | – | – | –
10 | COc1ccc(F)cc1[C@](O)(CCO)Cn1c(=O)n(C(C)(C)C(=O)NC(C)C)c(=O)c2c(C)c(-n3nccn3)sc21 [Compound I-275] | – | – | – | – | – | – | – | – | > 50 µg/mL | > 50 µg/mL | 50 µg/mL (≈ 84.9 µM) | 50 µg/mL (≈ 84.9 µM) | 50 µg/mL (≈ 84.9 µM) | > 50 µg/mL | > 50 µg/mL | 50 µg/mL (≈ 84.9 µM) | –
